Assays:
[1] = system: sebaceous glands; assay: Activity of PPAR activators on the size of sebaceous glands, daily topical application to rat back skin; type: in vivo, female Fuzzy or OFA rats; details: once daily 4 weeks, control (acetone) = 1.00
Description: The evaluation of the activity of the compounds according to the invention is performed by daily topical application (once a day, weekends included) to the skin of the back of female Fuzzy or OFA rats, for 4 weeks. 30 animals of 9/10 weeks old were divided into groups of 6 animals.
The evaluation method entails weighing the animals at the start and end of the test and in evaluating the size of the sebaceous glands on epidermal leaflets.
The animals are euthanized and the treated area (back) is then shaved and defatted. The 8 mm biopsy samples are then incubated in 1 M NaBr. After separating out the epidermis, photographs are taken of the sebaceous glands and the images obtained are then analyzed using the Tina software (quantification of the area of the sebaceous glands, arbitrary area unit [mm^2]), version 2.09 g sold by Raytest GmbH.
The statistical analysis is performed according to Student's t test (XL software sold by Microsoft)
The results are expressed as the mean of the inductions (“Mean RI”) with the value of the standard error of the mean (“SEM”).
Student's t test (“stat”): NS not significant • *p<0.05 • **p<0.01 • ***p<0.001

[2] = target: T1, PPARs delta (Homo sapiens, UniProt Q03181); assay: PPAR transactivation test, PPAR delta (HeLN reporter cells); type: cell-based; details: luciferase reporter, Gal-hPPAR delta, n.a. means not active, read-out: PPARs delta Kd app
T1 sequence (Q03181 171-441 limits assumed): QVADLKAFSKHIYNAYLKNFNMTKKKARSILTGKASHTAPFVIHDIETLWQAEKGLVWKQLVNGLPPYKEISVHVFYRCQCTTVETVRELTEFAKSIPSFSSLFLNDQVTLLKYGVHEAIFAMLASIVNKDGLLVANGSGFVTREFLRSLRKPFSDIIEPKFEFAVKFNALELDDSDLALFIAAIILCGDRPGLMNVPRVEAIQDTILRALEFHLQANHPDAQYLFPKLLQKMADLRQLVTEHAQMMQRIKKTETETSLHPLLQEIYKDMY
Description: (§1) Activation of the PPAR receptors with an agonist (activator) in HeLN cells leads to the expression of a reporter gene, luciferase, which, in the presence of a substrate, generates light. The modulation of the PPAR receptors is measured by quantifying the luminescence produced after incubating the cells in the presence of a reference agonist. The ligands displace the agonist from its site. The measurement of the activity is performed by quantifying the light produced. This measurement makes it possible to determine the modulatory activity of the compounds according to the invention by determining the constant that represents the affinity of the molecule for the PPAR receptor. This value can fluctuate according to the basal activity and the expression of the receptor: it is referred to as Kd apparent (KdApp in nM).
(§2) Measurements are also taken for the total agonist controls with the same products.
(§3) The HeLN cell lines used are stable transfectants comprising the plasmids ERE-βGlob-Luc-SV-Neo (reporter gene) and PPAR (α, δ, γ) Gal-hPPAR. These cells are inoculated in 96-well plates at a rate of 10,000 cells per well in 100 µl of DMEN medium without phenol red and supplemented with 10% defatted calf serum. The plates are then incubated at 37° C. and 7% CO2 for 16 hours.
(§4) The various dilutions of the test products and of the reference ligand are added in a proportion of 5 µl per well. The plates are then incubated for 18 hours at 37° C., 7% CO2. The culture medium is removed by upturning and 100 μl of a 1:1 PBS/luciferin mixture are added to each well. After 5 minutes, the plates are read using a luminescence reader.

[3] = target: T2, PPAR gamma (Homo sapiens, UniProt P37231); assay: PPAR transactivation test, PPAR gamma (HeLN reporter cells); type: cell-based; details: luciferase reporter, Gal-hPPAR gamma, n.a. means not active, read-out: PPAR gamma Kd app
T2 sequence (P37231 238-505 limits assumed): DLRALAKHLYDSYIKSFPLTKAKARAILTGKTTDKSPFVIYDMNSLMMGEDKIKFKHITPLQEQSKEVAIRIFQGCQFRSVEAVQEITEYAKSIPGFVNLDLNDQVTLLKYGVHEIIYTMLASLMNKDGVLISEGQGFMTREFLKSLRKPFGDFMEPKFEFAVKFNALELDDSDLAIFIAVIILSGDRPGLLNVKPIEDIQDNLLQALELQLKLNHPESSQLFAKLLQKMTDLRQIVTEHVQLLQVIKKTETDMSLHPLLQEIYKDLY
Description: as §1, §2, §3, §4

[4] = target: T3, PPAR alpha (Homo sapiens, UniProt Q07869); assay: PPAR transactivation test, PPAR alpha (HeLN reporter cells); type: cell-based; details: luciferase reporter, Gal-hPPAR alpha, n.a. means not active, read-out: PPAR alpha Kd app
T3 sequence (Q07869 200-468 limits assumed): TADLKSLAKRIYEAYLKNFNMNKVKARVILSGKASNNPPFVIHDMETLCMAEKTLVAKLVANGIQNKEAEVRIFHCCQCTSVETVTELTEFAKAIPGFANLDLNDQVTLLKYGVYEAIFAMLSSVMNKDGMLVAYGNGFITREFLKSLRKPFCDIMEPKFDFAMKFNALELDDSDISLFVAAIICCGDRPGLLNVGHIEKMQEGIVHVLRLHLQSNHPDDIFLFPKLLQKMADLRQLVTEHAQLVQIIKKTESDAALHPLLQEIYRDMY
Description: as §1, §2
The HeLN cell lines used are stable transfectants comprising the plasmids ERE-βGlob-Luc-SV-Neo (reporter gene) and PPAR (α, δ, γ) Gal-hPPAR. These cells are inoculated in 96-well plates at a rate of 10,000 cells per well in 100 µl of DMEN medium without phenol red and supplemented with 10% defatted calf serum. […]
The various dilutions of the test products and of the reference ligand are added in a proportion of 5 µl per well. […] After 5 minutes, the plates are read using a luminescence reader.

For CN(CCOc1ccc(CC2SC(=O)NC2=O)cc1)c1ccccn1 (centres unmarked) [Example 1, 5-{4-[2-(methylpyrid-2-ylamino)ethoxy]-benzyl}thiazolidine-2,4-dione], the “Mean RI (sebaceous gland size)” value ([1]; Study 1, 0.1% topical) was 0.73, the “Mean RI (sebaceous gland size)” value ([1]; Study 1, 0.3% topical) was 0.55 and the “Mean RI (sebaceous gland size)” value ([1]; Study 1, 1% topical) was 0.51. For the same compound, the “Mean RI (sebaceous gland size)” value ([1]; Study 2, 0.1% topical) was 0.83.
In the case of CCCCCCCNC(=O)N(C)c1cccc(-c2ccc(C[C@H](Nc3ccccc3C(=O)c3ccccc3)C(=O)O)cc2)c1 [Example 3, (S)-3-[3′-(3-heptyl-1-methylureido)biphenyl4-yl]-2-[2-(1-phenylmethanoyl)phenylamino]-propionic acid], the Kd [2] is reported as 250 nM, the “Mean RI (sebaceous gland size)” value ([1]; Study 3, 0.01% topical) is reported as 1.02 and the “Mean RI (sebaceous gland size)” value ([1]; Study 3, 0.1% topical) is reported as 0.84. For the same compound, the “Mean RI (sebaceous gland size)” value ([1]; Study 3, 1% topical) was 0.74 and the Kd [3] was 15 nM.
COCCOCOc1ccc2cc(C(=O)N(C)Cc3cccc(-c4ccc(Nc5ccccc5C(=O)O)cc4)c3)ccc2c1 [Example 6, 2-{3′-[({1-[6-(2-methoxyethoxymethoxy)-naphthalen-2-yl]methanoyl}methylamino)methyl]biphenyl-4-ylamino}benzoic acid] showed a Kd [3] of 30 nM.
In the case of CN(C)c1ccc(NC(=O)N(C)c2cccc(-c3ccc(C[C@H](Nc4ccccc4C(=O)c4ccccc4)C(=O)O)cc3)c2)cc1 [Example 7, (S)-3-{3′-[3(4-dimethylaminophenyl)-1-methylureido]biphenyl-4-yl}-2-[2-(1-phenylmethanoyl)-phenylamino]propionic acid], the Kd [2] is reported as 4000 nM and the Kd [3] is reported as 8 nM.
In the case of C[C@]12CCC(=O)CC1CCC1C2CC[C@@]2(C)C1CC[C@@H]2O (stereo partly drawn) [Positive Control, 5a-androstan-17β-ol-3-one, reference compound], the “Mean RI (sebaceous gland size)” value ([1]; Study 1, 0.3% topical) is reported as 1.73.
For CCCc1nnc([C@H](Cc2ccc(OCCc3nc(-c4ccccc4)oc3C)cc2)Nc2ccccc2C(=O)c2ccccc2)o1 [Negative Control, 1-{2-[(S)-2-{4-[2-(5-methyl-2-phenyloxazol-4-yl)ethoxy]phenyl}-1-(5-propyl[1,3,4]oxadiazol-2-yl)ethylamino]phenyl}-1-phenylmethanone, reference compound], the “Mean RI (sebaceous gland size)” value ([1]; Study 4, 0.01% topical) was 1.12, the “Mean RI (sebaceous gland size)” value ([1]; Study 4, 0.1% topical) was 1.08 and the “Mean RI (sebaceous gland size)” value ([1]; Study 4, 1% topical) was 1.08.
For CCCCCCCC(=O)N(C)Cc1cccc(-c2ccc(C[C@H](OCC)C(=O)O)cc2)c1 [Example 5, (S)-2-ethoxy-3-{3′-[(methyloctanoylamino)methyl]biphenyl-4-yl}propionic acid], the Kd [2] was 4000 nM, the Kd [4] was 500 nM and the Kd [3] was 2 nM.
COCCOCOc1ccc2cc(C(=O)N(C)Cc3cccc(-c4ccc(CC5SC(=O)NC5=O)cc4)c3)ccc2c1 (centres unmarked) [Example 2, N-methyl-N-[4′-(2,4-dioxothiazolidin-5-yl-methyl)biphenyl-3-ylmethyl]-6-(2-methoxyethoxymethoxy)-naphthalene-2-carboxamide] was tested, and the “Mean RI (sebaceous gland size)” value ([1]; Study 2, 0.003% topical) was 0.82, the “Mean RI (sebaceous gland size)” value ([1]; Study 2, 0.03% topical) was 0.75 and the “Mean RI (sebaceous gland size)” value ([1]; Study 2, 0.3% topical) was 0.65. For the same compound, the “Mean RI (sebaceous gland size)” value ([1]; Study 3, 0.3% topical) was 0.66, the “Mean RI (sebaceous gland size)” value ([1]; Study 4, 0.3% topical) was 0.67 and the Kd [3] was 0.5 nM.
CCCOc1ccc2cc(C(=O)N(C)Cc3cccc(-c4ccc(CC5SC(=O)NC5=O)cc4)c3)ccc2c1 (centres unmarked) [Example 4, N-methyl-N-[4′-(2,4-dioxothiazolidin-5-yl-methyl)biphenyl-3-ylmethyl)-6-propoxynaphthalene-2-carboxamide] gave a Kd [3] of 1 nM.

— patent US20070065471A1, “Cosmetic/dermatological applications of PPAR receptor activators” (GALDERMA RESEARCH & DEVELOPMENT S.N.C., priority 2003, published 2007)
